The supplement of paper PMC11208160

Assay: recombinant barcode read abundance after kanamycin selection (control-corrected) (log10(CPM+1)); higher = more efficient recombination; sequences stand for … in AGTGCAGAGAAAATCGGCCAGTTTTCTCTGCCTGCAGTCCGCATGCCGT…AGATTTATGCAGCGGACTGCCTTTCTCCCAAAGTGATAAACCGGACAGTATCATGGACCGGTTTTCCCGGTAATCCGTATTTGCAAGGTTGGTTTCACT; site = the 11-nt target
In short: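 IS621 bridge RNA target-binding loops were paired with targets in a pooled library tested in E. coli. After co-electroporation with a donor plasmid, cells were plated in two replicates on chloramphenicol/ampicillin LB agar (control) and on chloramphenicol/ampicillin/kanamycin carrying 0.1 mM IPTG. Barcodes at recombinant junctions were counted as counts per million, averaged and control-corrected to give recombination efficiency. Values are log10(CPM+1).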
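Further: IS621 recombinase and bridge RNA in Escherichia coli cells.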

Sequence	recombinant barcode read abundance (log10)
TAGTAGTCTTGGGTTCTAACCTGTTGCCT (site TAGTAGTCTAT)	0.108
TAGTATCCTTGGGTTCTAACCTGTTGCCA (site TACTACCCTTG)	0.142
TAGTATCCTTGGGTTCTAACCTGTTGCCA (site TAGTATCCTTG)	0.146
TAGTATCCTTGGGTTCTAACCTGTTGCTA (site TAGTATCCTTA)	0.714
TAGTATCCTTGGGTTCTAACCTGTTGCTA (site TAGTATGCTTA)	0.0411
TAGTCGTCTTGGGTTCTAACCTGTTGCTT (site TAGTCGTCTAA)	0.456
TAGTCGTCTTGGGTTCTAACCTGTTGCTT (site TAGTCGTCTAG)	0.309
TAGTCTGCTTGGGTTCTAACCTGTTGCCT (site TAGACTGCTAG)	0.0965
TAGTCTGCTTGGGTTCTAACCTGTTGCCT (site TAGCCTGCTAG)	0.27
TAGTCTGCTTGGGTTCTAACCTGTTGCCT (site TAGGCTGCTAG)	0.0685
TAGTCTGCTTGGGTTCTAACCTGTTGCCT (site TAGTCTGCTAG)	0.0515
TAGTGCTCTTGGGTTCTAACCTGTTGCCT (site TAGTGCTCTAG)	1.12
TAGTGCTCTTGGGTTCTAACCTGTTGCCT (site TAGTGCTCTCG)	0.434
TAGTGCTCTTGGGTTCTAACCTGTTGCCT (site TAGTGCTCTGG)	0.157
TAGTGCTCTTGGGTTCTAACCTGTTGCCT (site TAGTGCTCTTG)	0.178
TAGTGGCCTTGGGTTCTAACCTGTTGCCA (site TAGTGGACTTG)	0.095
TAGTGGCCTTGGGTTCTAACCTGTTGCCA (site TAGTGGCCTTG)	0.261
TAGTGTACTTGGGTTCTAACCTGTTGCCT (site TAGTGTACTAG)	0.579
TAGTGTACTTGGGTTCTAACCTGTTGCCT (site TAGTGTCCTAG)	0.16
TAGTGTACTTGGGTTCTAACCTGTTGCCT (site TAGTGTGCTAG)	0.221
TAGTGTACTTGGGTTCTAACCTGTTGCCT (site TAGTGTTCTAG)	0.376
TAGTGTCCTTGGGTTCTAACCTGTTGCAT (site TAGTGTCCTAT)	0.769

Sequence	recombinant barcode read abundance (log10)
TAGTGTCCTTGGGTTCTAACCTGTTGCAT (site TAGTGTTCTAT)	0.155
TAGTTAACTTGGGTTCTAACCTGTTGCCA (site TAGTTAACTTG)	0.569
TAGTTAACTTGGGTTCTAACCTGTTGCCA (site TAGTTCACTTG)	0.0909
TAGTTAACTTGGGTTCTAACCTGTTGCCA (site TAGTTGACTTG)	0.0635
TAGTTAACTTGGGTTCTAACCTGTTGCCA (site TAGTTTACTTG)	0.0484
TAGTTAGCTTGGGTTCTAACCTGTTGCCG (site TAGTTAGCTAG)	0.0808
TAGTTAGCTTGGGTTCTAACCTGTTGCCG (site TAGTTAGCTCG)	0.666
TAGTTAGCTTGGGTTCTAACCTGTTGCCG (site TAGTTAGCTGG)	0.00835
TAGTTAGCTTGGGTTCTAACCTGTTGCCG (site TAGTTAGCTTG)	0.0519
TAGTTATCTTGGGTTCTAACCTGTTGCTA (site AGACGTACTAC)	0.134
TAGTTATCTTGGGTTCTAACCTGTTGCTA (site TAGTTATCTTA)	0.0606
TAGTTGCCTTGGGTTCTAACCTGTTGCCT (site TAATTGCCTAG)	0.296
TAGTTGCCTTGGGTTCTAACCTGTTGCCT (site TACTTGCCTAG)	0
TAGTTGCCTTGGGTTCTAACCTGTTGCCT (site TAGTTGCCTAG)	0.565
TAGTTGCCTTGGGTTCTAACCTGTTGCCT (site TATTTGCCTAG)	0.0554
TATACACCTTGGGTTCTAACCTGTTGCGT (site CTCCGGGCTCT)	0.0474
TATACACCTTGGGTTCTAACCTGTTGCGT (site TATACACCTAC)	1.48
TATACCACTTGGGTTCTAACCTGTTGCCT (site TATACCACTAG)	0.541
TATACCACTTGGGTTCTAACCTGTTGCCT (site TCGACCACTAG)	0.103
TATATGACTTGGGTTCTAACCTGTTGCGG (site ATGCACGCTAG)	0.0662
TATATGACTTGGGTTCTAACCTGTTGCGG (site TATATGACTCC)	1.41
TATCCTCCTTGGGTTCTAACCTGTTGCCG (site GTGGAGTCTAC)	0.177

Sequence	recombinant barcode read abundance (log10)
TATCCTCCTTGGGTTCTAACCTGTTGCCG (site TATCCTCCTCG)	0.318
TATCGGCCTTGGGTTCTAACCTGTTGCCT (site TAACGGCCTAG)	0.0814
TATCGGCCTTGGGTTCTAACCTGTTGCCT (site TACCGGCCTAG)	0.0568
TATCGGCCTTGGGTTCTAACCTGTTGCCT (site TAGCGGCCTAG)	0.0857
TATCGGCCTTGGGTTCTAACCTGTTGCCT (site TATCGGCCTAG)	0.0996
TATGCGCCTTGGGTTCTAACCTGTTGCCT (site CATGTGCCTAG)	0.149
TATGCGCCTTGGGTTCTAACCTGTTGCCT (site TATGCGCCTAG)	0.327
TATGGGGCTTGGGTTCTAACCTGTTGCCT (site TATGAGGCTAG)	0.145
TATGGGGCTTGGGTTCTAACCTGTTGCCT (site TATGCGGCTAG)	0.0621
TATGGGGCTTGGGTTCTAACCTGTTGCCT (site TATGGGGCTAG)	0.246
TATGGGGCTTGGGTTCTAACCTGTTGCCT (site TATGTGGCTAG)	0.0518
TATGTACCTTGGGTTCTAACCTGTTGCCT (site AATGTACCTAG)	0.052
TATGTACCTTGGGTTCTAACCTGTTGCCT (site CATGTACCTAG)	0.234
TATGTACCTTGGGTTCTAACCTGTTGCCT (site GATGTACCTAG)	0.101
TATGTACCTTGGGTTCTAACCTGTTGCCT (site TATGTACCTAG)	1.46
TATGTAGCTTGGGTTCTAACCTGTTGCCA (site TATGTAGCTAG)	0.22
TATGTAGCTTGGGTTCTAACCTGTTGCCA (site TATGTAGCTCG)	0.0344
TATGTAGCTTGGGTTCTAACCTGTTGCCA (site TATGTAGCTGG)	0.201
TATGTAGCTTGGGTTCTAACCTGTTGCCA (site TATGTAGCTTG)	1.05
TATGTGGCTTGGGTTCTAACCTGTTGCCT (site TATGAGGCTAG)	0.551
TATGTGGCTTGGGTTCTAACCTGTTGCCT (site TATGCGGCTAG)	0.296
TATGTGGCTTGGGTTCTAACCTGTTGCCT (site TATGGGGCTAG)	0.0271

Sequence	recombinant barcode read abundance (log10)
TATGTGGCTTGGGTTCTAACCTGTTGCCT (site TATGTGGCTAG)	0.179
TATGTGTCTTGGGTTCTAACCTGTTGCCT (site TAAGTGTCTAG)	1.67
TATGTGTCTTGGGTTCTAACCTGTTGCCT (site TACGTGTCTAG)	0.509
TATGTGTCTTGGGTTCTAACCTGTTGCCT (site TAGGTGTCTAG)	0.0112
TATGTGTCTTGGGTTCTAACCTGTTGCCT (site TATGTGTCTAG)	2.01
TATTACCCTTGGGTTCTAACCTGTTGCCT (site TATTAACCTAG)	0.035
TATTACCCTTGGGTTCTAACCTGTTGCCT (site TATTACCCTAG)	0.739
TATTACCCTTGGGTTCTAACCTGTTGCCT (site TATTAGCCTAG)	0.0773
TATTACCCTTGGGTTCTAACCTGTTGCCT (site TATTATCCTAG)	0.12
TATTCTACTTGGGTTCTAACCTGTTGCGG (site TATTCTACTAC)	0.0937
TATTCTACTTGGGTTCTAACCTGTTGCGG (site TATTCTACTCC)	0.223
TATTCTACTTGGGTTCTAACCTGTTGCGG (site TATTCTACTGC)	0.101
TATTCTACTTGGGTTCTAACCTGTTGCGG (site TATTCTACTTC)	0.169
TATTGGCCTTGGGTTCTAACCTGTTGCGT (site ACGACTACTCG)	0.0203
TATTGGCCTTGGGTTCTAACCTGTTGCGT (site TATTGGCCTAC)	0.202
TATTTCTCTTGGGTTCTAACCTGTTGCCT (site AATTTCTCTAG)	0.0527
TATTTCTCTTGGGTTCTAACCTGTTGCCT (site CATTTCTCTAG)	0.0799
TATTTCTCTTGGGTTCTAACCTGTTGCCT (site GATTTCTCTAG)	0.0942
TATTTCTCTTGGGTTCTAACCTGTTGCCT (site TATTTCTCTAG)	0.157
TATTTGCCTTGGGTTCTAACCTGTTGCTG (site GCACCTGCTAG)	0.183
